Reference: article PMC4859410 (Pharmacogenetics and genomics, 2010)
Read-outs that look alike come from different tables or passages of the source.

How the values were obtained:
[1] = assay type: in vivo, human
OATP1B3 = molecular target: T1, OATP1B3 (Homo sapiens, UniProt Q9NPD5); assay: Drug uptake in X. laevis oocytes injected with SLCO1B3; assay type: in vitro ADME; conditions: without human serum albumin, 1 µM (darunavir 3 µM, performed once), 18°C, 1hr, mean ± SD; for Drug uptake, OATP1B3: OATP1B3 cRNA injected oocytes; for Drug uptake, Water: water injected control oocytes (Table 3)
T1 sequence (Q9NPD5 1-702): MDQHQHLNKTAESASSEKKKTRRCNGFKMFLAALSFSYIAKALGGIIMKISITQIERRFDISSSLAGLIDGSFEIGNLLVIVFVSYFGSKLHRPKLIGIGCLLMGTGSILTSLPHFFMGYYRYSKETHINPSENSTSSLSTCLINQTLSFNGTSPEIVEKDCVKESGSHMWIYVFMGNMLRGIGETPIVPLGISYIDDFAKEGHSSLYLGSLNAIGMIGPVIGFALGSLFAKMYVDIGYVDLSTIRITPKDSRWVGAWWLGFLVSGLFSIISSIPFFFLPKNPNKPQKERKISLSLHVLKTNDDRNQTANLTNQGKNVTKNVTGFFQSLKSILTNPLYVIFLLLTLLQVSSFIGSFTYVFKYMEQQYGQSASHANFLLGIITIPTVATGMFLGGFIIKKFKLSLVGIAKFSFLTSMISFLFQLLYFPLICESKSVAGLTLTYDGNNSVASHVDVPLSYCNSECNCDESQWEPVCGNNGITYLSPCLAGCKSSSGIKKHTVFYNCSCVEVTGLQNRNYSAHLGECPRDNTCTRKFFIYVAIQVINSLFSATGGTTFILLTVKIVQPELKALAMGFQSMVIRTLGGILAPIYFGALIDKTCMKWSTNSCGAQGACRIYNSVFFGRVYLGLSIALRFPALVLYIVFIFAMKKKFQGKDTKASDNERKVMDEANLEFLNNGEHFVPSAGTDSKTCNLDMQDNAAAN

OATP1A2 = molecular target: T2, OATP1A2 (Homo sapiens, UniProt P46721); assay: Drug uptake in X. laevis oocytes injected with SLCO1A2; assay type: in vitro ADME; conditions: 1 µM (darunavir 3 µM), 18°C, 1hr, mean ± SD; for Drug uptake, OATP1A2: OATP1A2 cRNA injected oocytes; for Drug uptake, Water: water injected control oocytes (Table 1)
T2 sequence (P46721 1-670): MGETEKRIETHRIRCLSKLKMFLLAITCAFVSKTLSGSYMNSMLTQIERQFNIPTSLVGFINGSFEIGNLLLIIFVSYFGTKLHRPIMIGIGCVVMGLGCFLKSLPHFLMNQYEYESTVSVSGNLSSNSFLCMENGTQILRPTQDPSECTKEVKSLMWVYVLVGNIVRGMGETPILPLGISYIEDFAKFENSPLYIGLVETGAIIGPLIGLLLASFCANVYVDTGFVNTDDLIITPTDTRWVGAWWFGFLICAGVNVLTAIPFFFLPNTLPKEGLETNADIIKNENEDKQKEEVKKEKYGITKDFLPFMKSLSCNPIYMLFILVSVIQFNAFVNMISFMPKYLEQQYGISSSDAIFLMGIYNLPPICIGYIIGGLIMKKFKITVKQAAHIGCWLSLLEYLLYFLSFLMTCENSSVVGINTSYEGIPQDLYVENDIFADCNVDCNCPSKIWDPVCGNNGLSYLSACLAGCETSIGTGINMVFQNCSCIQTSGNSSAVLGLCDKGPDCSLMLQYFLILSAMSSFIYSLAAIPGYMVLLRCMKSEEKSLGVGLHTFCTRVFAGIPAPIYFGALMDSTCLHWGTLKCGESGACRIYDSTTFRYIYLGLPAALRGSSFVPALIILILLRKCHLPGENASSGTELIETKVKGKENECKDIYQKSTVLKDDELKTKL

OATP1B1 [2] = molecular target: T3, OATP1B1 (Homo sapiens, UniProt Q9Y6L6); assay: Drug uptake in X. laevis oocytes injected with SLCO1B1; assay type: in vitro ADME; conditions: 1 µM (darunavir 3 µM), 18°C, 1hr, mean ± SD; for Drug uptake, OATP1B1: OATP1B1 cRNA injected oocytes; for Drug uptake, Water: water injected control oocytes (Table 2)
T3 sequence (Q9Y6L6 1-691): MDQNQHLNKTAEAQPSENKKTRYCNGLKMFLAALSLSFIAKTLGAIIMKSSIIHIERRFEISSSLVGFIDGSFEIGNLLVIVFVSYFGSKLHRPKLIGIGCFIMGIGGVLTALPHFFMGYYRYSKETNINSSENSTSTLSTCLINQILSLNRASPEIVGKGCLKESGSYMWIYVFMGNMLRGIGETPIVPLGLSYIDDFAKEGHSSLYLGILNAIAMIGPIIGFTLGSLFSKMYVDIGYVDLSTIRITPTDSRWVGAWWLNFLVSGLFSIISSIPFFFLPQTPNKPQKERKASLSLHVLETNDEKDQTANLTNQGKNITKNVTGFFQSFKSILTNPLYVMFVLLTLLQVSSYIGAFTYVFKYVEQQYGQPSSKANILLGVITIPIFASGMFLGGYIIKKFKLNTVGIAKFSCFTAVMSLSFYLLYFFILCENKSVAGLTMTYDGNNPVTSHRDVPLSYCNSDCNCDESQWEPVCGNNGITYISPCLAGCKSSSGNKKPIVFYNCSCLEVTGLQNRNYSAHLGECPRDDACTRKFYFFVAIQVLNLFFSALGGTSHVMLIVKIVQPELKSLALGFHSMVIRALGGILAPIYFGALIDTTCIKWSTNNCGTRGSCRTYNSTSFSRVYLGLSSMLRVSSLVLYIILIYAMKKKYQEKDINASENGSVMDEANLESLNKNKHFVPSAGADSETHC

OATP1B1 [3] = molecular target: T3, OATP1B1; conditions: HEK 293 cells stably transfected with SLCO1B1; cited from earlier work
[4] = independent variable Age (Years)
[5] = independent variable Coadministered protease inhibitor
[6] = independent variable Male Gender
[7] = independent variable SLCO1A2 38T>C
[8] = independent variable SLCO1A2 516A>C
[9] = independent variable SLCO1B1 388A>G
[10] = independent variable SLCO1B1 521T>C
[11] = independent variable SLCO1B3 334T>G
[12] = independent variable Weight (per 10kg)
[13] = patients on lopinavir/ritonavir 400mg/100mg b.d., samples included in the analysis

In the case of `Cc1cccc(C)c1OCC(=O)N[C@@H](Cc1ccccc1)[C@@H](O)C[C@H](Cc1ccccc1)NC(=O)[C@H](C(C)C)N1CCCNC1=O` [Lopinavir, lopinavir], the “lopinavir Cmin with a SNP located in intron 2 of the SLCO1B1 gene” value ([1]; in words) is reported as “significantly lower”, the “median plasma lopinavir Cmin, patients homozygous for the C allele at position 521 of SLCO1B1 compared to T homozygotes or heterozygotes” value ([1]; in words) is reported as “significantly higher” and the “Univariate effect size on lopinavir C2-6” value [1, 4] is reported as 6.8%. For the same compound, the “Univariate effect size on lopinavir Cmin” value [1, 4] was 1.1%, the “Univariate effect size on lopinavir C2-6” value [1, 5] was −14.9% and the “Univariate effect size on lopinavir Cmin” value [1, 5] was −15.5%. For the same compound, the “Univariate effect size on lopinavir C2-6” value [1, 6] was 4.2%, the “Univariate effect size on lopinavir Cmin” value [1, 6] was −5.5% and the “Univariate effect size on lopinavir C2-6” value [1, 7] was 5.8%. The “Univariate effect size on lopinavir Cmin” value [1, 7] was 4.7%, the “Univariate effect size on lopinavir C2-6” value [1, 8] was 5.4% and the “Univariate effect size on lopinavir Cmin” value [1, 8] was −1.0%. The “Univariate effect size on lopinavir C2-6” value [1, 9] was −7.1%, the “Univariate effect size on lopinavir Cmin” value [1, 9] was −7.3% and the “Univariate effect size on lopinavir C2-6” value [1, 10] was 12.8%. The “Univariate effect size on lopinavir Cmin” value [1, 10] was 12.2%, the “Multivariate effect size on lopinavir Cmin” value ([1]; independent variable SLCO1B1 Intron 2 (rs4149032)) was 0.016 (−11) - % and the “Univariate effect size on lopinavir C2-6” value ([1]; independent variable SLCO1B1 Intron 2 (rs4149032), C2-6 = 2-6h post dose) was −4.6%. The “Univariate effect size on lopinavir Cmin” value ([1]; independent variable SLCO1B1 Intron 2 (rs4149032), Cmin = 10-14h post dose) was −11.9%, the “Univariate effect size on lopinavir C2-6” value [1, 11] was −0.2% and the “Univariate effect size on lopinavir Cmin” value [1, 11] was −1.8%. For the same compound, the “Multivariate effect size on lopinavir Cmin” value [1, 12] was −17.2%, the “Univariate effect size on lopinavir C2-6” value [1, 12] was −13.7% and the “Univariate effect size on lopinavir Cmin” value [1, 12] was −17.4%. The “C2-6 higher for each variant allele of SLCO1B1 521T>C” value ([1]; multivariate model) was 11.1%, the “C2-6 higher in patients receiving an additional protease inhibitor” value ([1]; multivariate model) was 14.4% and the “Cmin higher in patients receiving an additional protease inhibitor” value ([1]; multivariate model) was 15.4%. For the same compound, the “Cmin lower for each variant allele of SLCO1B1 rs4149032” value ([1]; multivariate model) was 11%, the “Cmin lower for every 10 Kg increase in body weight” value ([1]; multivariate model) was 17.2% and the “median lopinavir concentration (plasma)” value [1, 13] was 5072 ng/mL. For the same compound, the “range of lopinavir concentration (plasma)” value [1, 13] was 114 to 24432 ng/mL, the “Drug uptake, OATP1B3” value (OATP1B3) was 2.30 ± 0.66 pmol/oocyte and the “Drug uptake, Water” value (OATP1B3) was 1.69 ± 0.78 pmol/oocyte. The “Drug uptake, OATP1A2” value (OATP1A2; with 2% human serum albumin) was 1.65 ± 0.59 pmol/oocyte, the “Drug uptake, OATP1A2” value (OATP1A2; without human serum albumin) was 4.07 ± 0.67 pmol/oocyte and the “Drug uptake, Water” value (OATP1A2; with 2% human serum albumin) was 0.82 ± 0.24 pmol/oocyte. The “Drug uptake, Water” value (OATP1A2; without human serum albumin) was 2.53 ± 0.36 pmol/oocyte, the “Drug uptake, OATP1B1” value (OATP1B1 [2]; with 2% human serum albumin) was 1.14 ± 0.41 pmol/oocyte and the “Drug uptake, OATP1B1” value (OATP1B1 [2]; without human serum albumin) was 4.31 ± 0.72 pmol/oocyte. For the same compound, the “Drug uptake, Water” value (OATP1B1 [2]; with 2% human serum albumin) was 0.66 ± 0.22 pmol/oocyte and the “Drug uptake, Water” value (OATP1B1 [2]; without human serum albumin) was 2.14 ± 0.43 pmol/oocyte.
In the case of `CC(C)(C)NC(=O)[C@@H]1C[C@@H]2CCCC[C@@H]2CN1C[C@@H](O)[C@H](Cc1ccccc1)NC(=O)[C@H](CC(N)=O)NC(=O)c1ccc2ccccc2n1` [Saquinavir, saquinavir], the “Drug uptake, OATP1B3” value (OATP1B3) is reported as 2.17 ± 0.61 pmol/oocyte, the “Drug uptake, Water” value (OATP1B3) is reported as 1.62 ± 0.45 pmol/oocyte and the “Drug uptake, OATP1A2” value (OATP1A2; with 2% human serum albumin) is reported as 0.45 ± 0.05 pmol/oocyte. For the same compound, the “Drug uptake, OATP1A2” value (OATP1A2; without human serum albumin) was 2.16 ± 0.71 pmol/oocyte, the “Drug uptake, Water” value (OATP1A2; with 2% human serum albumin) was 0.27 ± 0.03 pmol/oocyte and the “Drug uptake, Water” value (OATP1A2; without human serum albumin) was 1.01 ± 0.21 pmol/oocyte. For the same compound, the “Inhibition of bilirubin uptake through OATP1B1” value (OATP1B1 [3]) was “inhibit bilirubin uptake”, the “Drug uptake, OATP1B1” value (OATP1B1 [2]; with 2% human serum albumin) was 0.64 ± 0.23 pmol/oocyte and the “Drug uptake, OATP1B1” value (OATP1B1 [2]; without human serum albumin) was 1.78 ± 0.44 pmol/oocyte. For the same compound, the “Drug uptake, Water” value (OATP1B1 [2]; with 2% human serum albumin) was 0.21 ± 0.06 pmol/oocyte and the “Drug uptake, Water” value (OATP1B1 [2]; without human serum albumin) was 0.94 ± 0.26 pmol/oocyte.
